The supplement of paper PMC10307832

Tests used:
Assay in all cases: relative viability (nuclei count vs DMSO), 5 days (fraction); higher = more cells survive
Sunitinib + Bortezomib = compound: CCN(CC)CCNC(=O)c1c(C)[nH]c(/C=C2\C(=O)Nc3ccc(F)cc32)c1C [Sunitinib] + CC(C)C[C@H](NC(=O)[C@H](Cc1ccccc1)NC(=O)c1cnccn1)B(O)O [Bortezomib] (partner 0.002 µM)
Summary of the method: (§1)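 Lung cancer cell lines in 1536-well plates got either a single drug or a fixed anchor-drug dose together with five library-drug doses (not always all listed) in √10 steps, by pin tool, on the day after seeding. Nuclei were counted after 5 days, and relative viability is the treated-to-vehicle ratio of nuclei counts. Values are medians of duplicate plates.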

Sunitinib + Alpelisib = compound: CCN(CC)CCNC(=O)c1c(C)[nH]c(/C=C2\C(=O)Nc3ccc(F)cc32)c1C [Sunitinib] + Cc1nc(NC(=O)N2CCC[C@H]2C(N)=O)sc1-c1ccnc(C(C)(C)C(F)(F)F)c1 [Alpelisib] (partner 2 µM)
Summary of the method: as §1

Sunitinib + Pemetrexed = compound: CCN(CC)CCNC(=O)c1c(C)[nH]c(/C=C2\C(=O)Nc3ccc(F)cc32)c1C [Sunitinib] + Nc1nc2[nH]cc(CCc3ccc(C(=O)N[C@@H](CCC(=O)O)C(=O)O)cc3)c2c(=O)[nH]1 [Pemetrexed] (partner 0.2 µM)
Summary of the method: as §1

Sunitinib + Olaparib = compound: CCN(CC)CCNC(=O)c1c(C)[nH]c(/C=C2\C(=O)Nc3ccc(F)cc32)c1C [Sunitinib] + O=C(c1cc(Cc2n[nH]c(=O)c3ccccc23)ccc1F)N1CCN(C(=O)C2CC2)CC1 [Olaparib] (partner 8 µM)
Summary of the method: as §1

Cell Line | relative viability (Sunitinib + Bortezomib; first compound 0.02 µM) | relative viability (Sunitinib + Bortezomib; first compound 0.06325 µM) | relative viability (Sunitinib + Bortezomib; first compound 0.2 µM) | relative viability (Sunitinib + Bortezomib; first compound 0.6325 µM) | relative viability (Sunitinib + Bortezomib; first compound 2 µM) | relative viability (Sunitinib + Alpelisib; first compound 0.02 µM) | relative viability (Sunitinib + Alpelisib; first compound 0.06325 µM) | relative viability (Sunitinib + Alpelisib; first compound 0.6325 µM) | relative viability (Sunitinib + Alpelisib; first compound 2 µM) | relative viability (Sunitinib + Pemetrexed; first compound 0.02 µM) | relative viability (Sunitinib + Pemetrexed; first compound 0.06325 µM) | relative viability (Sunitinib + Pemetrexed; first compound 0.2 µM) | relative viability (Sunitinib + Pemetrexed; first compound 0.6325 µM) | relative viability (Sunitinib + Pemetrexed; first compound 2 µM) | relative viability (Sunitinib + Olaparib; first compound 0.02 µM) | relative viability (Sunitinib + Olaparib; first compound 0.06325 µM) | relative viability (Sunitinib + Olaparib; first compound 0.2 µM) | relative viability (Sunitinib + Olaparib; first compound 0.6325 µM) | relative viability (Sunitinib + Olaparib; first compound 2 µM) | relative viability (Sunitinib + Alpelisib; first compound 0.2 µM)
NCI-H1437 | 0.567 | 0.643 | 0.514 | 0.494 | 0.551 | 0.949 | 0.974 | 1.01 | 0.905 | 0.336 | 0.329 | 0.345 | 0.309 | 0.322 | 0.623 | 0.641 | 0.614 | 0.61 | 0.647 | –
NCI-H1651 | – | 1.06 | 0.987 | 0.884 | 0.968 | 0.738 | 0.969 | 1.02 | 0.991 | 0.597 | 0.609 | 0.617 | 0.481 | 0.604 | 0.213 | 0.196 | 0.199 | 0.17 | 0.179 | 1.17
NCI-H1666 | 0.867 | – | 1.01 | 0.839 | 0.86 | 0.865 | 0.938 | 1.02 | 0.971 | 0.827 | 0.834 | 0.936 | 0.867 | 0.997 | 0.77 | 0.825 | 0.75 | 0.862 | 0.85 | 1.03
NCI-H1734 | 0.855 | 0.962 | 1.35 | 1.09 | 0.911 | 0.626 | 0.673 | 0.669 | 0.641 | 0.406 | 0.426 | 0.396 | 0.411 | 0.411 | 0.552 | 0.618 | 0.691 | 0.619 | 0.539 | 0.869
NCI-H1755 | 0.992 | 1.02 | 1.04 | 0.93 | – | 0.938 | 0.915 | 0.94 | – | 0.427 | 0.502 | 0.636 | 0.407 | 0.52 | 0.859 | 0.881 | 0.93 | 0.961 | 0.91 | 1.01
NCI-H1792 | 0.93 | 0.924 | 1.09 | 0.99 | 0.981 | 0.578 | 0.56 | 0.682 | 0.824 | 0.619 | 0.942 | 1.26 | 1.21 | 0.775 | 0.491 | 0.371 | 0.98 | 0.404 | 0.384 | 0.78
NCI-H1915 | – | 0.994 | 1 | 1.05 | 1.02 | – | 1.09 | 1.06 | 1.11 | 0.428 | 0.486 | 0.499 | 0.527 | 0.484 | 0.261 | 0.288 | 0.268 | 0.245 | 0.289 | 1.13
NCI-H1975 | 0.401 | 0.448 | 0.401 | 0.438 | 0.406 | 0.597 | 0.686 | 0.677 | 0.381 | 0.289 | 0.318 | 0.317 | 0.298 | 0.305 | 0.742 | 0.8 | 0.946 | 0.868 | 0.714 | 0.669
NCI-H1993 | 1.1 | 1.34 | 1.36 | – | 1.04 | 0.674 | 0.697 | 0.689 | 0.68 | 0.436 | 0.563 | 0.584 | 0.55 | 0.575 | 1.02 | 0.979 | 1.12 | 0.844 | 1.03 | 0.716
NCI-H2009 | 0.973 | – | 1.01 | 1.17 | 1.18 | 1.18 | 1.2 | 1.19 | 1.12 | 1.03 | 1.01 | 1.1 | 1.08 | 1.12 | 0.675 | 0.739 | 0.717 | 0.799 | 0.778 | 1.27
NCI-H2023 | 0.921 | 1.13 | 1.11 | 1.22 | – | 0.638 | 0.584 | 0.64 | 0.516 | 0.235 | 0.307 | 0.265 | 0.301 | 0.222 | 0.487 | 0.485 | 0.518 | 0.462 | 0.465 | 0.697
NCI-H2085 | 1 | 1.05 | – | 1.16 | 1.07 | 0.998 | – | 0.988 | 0.978 | 0.909 | – | 1.04 | 0.952 | 0.87 | 0.777 | 0.801 | 0.819 | 0.808 | 0.787 | 0.992
NCI-H2087 | 0.855 | 0.793 | 0.966 | 0.994 | 1.04 | 0.904 | 1.06 | 1.23 | 1.01 | 0.711 | 0.693 | 0.559 | 0.626 | 0.693 | 0.605 | 0.689 | 0.822 | 0.674 | 0.56 | 1.11
NCI-H2126 | 1.07 | 1.19 | 1.16 | 1.15 | 1.13 | 0.736 | 0.76 | 0.747 | 0.715 | 0.628 | 0.826 | 0.777 | 0.786 | 0.751 | 0.924 | 0.978 | 0.978 | 1 | 0.884 | 0.818
NCI-H2228 | 1.04 | 1.14 | 1.22 | 1.15 | 1 | 0.735 | 0.729 | 0.717 | 0.538 | 0.343 | 0.313 | 0.37 | 0.349 | 0.349 | 0.608 | 0.55 | 0.98 | 0.772 | 0.544 | 1
NCI-H2347 | 0.853 | 1.21 | 1.1 | – | 1.11 | 0.996 | 1.03 | 1.09 | 0.947 | 0.415 | 0.446 | 0.419 | 0.44 | 0.458 | 0.596 | 0.611 | 0.695 | 0.609 | 0.572 | 1.13
NCI-H2405 | 0.997 | 0.924 | 1.09 | 1.08 | 1 | 0.816 | 0.811 | 1.06 | 0.713 | 1.07 | 1.1 | 1.21 | 1.13 | 1.13 | 0.855 | 0.965 | 0.88 | 0.96 | 0.93 | 0.862
NCI-H3122 | 1.01 | 1.01 | – | 0.985 | 0.985 | – | 0.894 | 0.725 | 0.803 | 0.201 | 0.215 | 0.202 | 0.185 | 0.205 | 0.636 | 0.692 | 0.657 | 0.606 | 0.585 | 0.84
PC-3 [JPC-3] | 0.836 | 0.88 | 0.893 | 0.869 | 0.732 | 1.1 | 1.07 | 1.07 | 0.99 | 1.35 | 1.08 | 1.13 | 1.11 | 1.03 | 1.05 | 1.12 | 1.22 | 1.12 | 0.926 | 1.03
PC-14 | 0.946 | 0.858 | 0.99 | 0.878 | 0.726 | 0.95 | 0.874 | 1.08 | 0.908 | 0.137 | 0.158 | 0.135 | 0.132 | 0.153 | 0.292 | 0.334 | 0.196 | 0.335 | 0.211 | 1.05
RERF-LC-KJ | 0.994 | – | 1.26 | 1.03 | 1.09 | 0.775 | 0.826 | – | 0.789 | 0.472 | 0.483 | 0.485 | 0.418 | 0.49 | 0.872 | 0.939 | 1.04 | 0.971 | 0.896 | 0.932
SK-LU-1 | 0.959 | 1.26 | 1.38 | 1.36 | 0.982 | 0.863 | 1.25 | 1.09 | 0.669 | 0.944 | 1 | 1.1 | 1.12 | 0.884 | 0.422 | 0.494 | 0.555 | 0.491 | 0.532 | 1.12
SW 1573 | 0.944 | 1.11 | 1.2 | 1.22 | 1 | 0.715 | 0.827 | 0.84 | 0.784 | 0.867 | – | 0.9 | 0.958 | 0.943 | 0.488 | 0.56 | 0.622 | 0.522 | 0.511 | 0.932
UMC-11 | 0.61 | – | 0.841 | 0.762 | 0.896 | 0.945 | 1.03 | 0.929 | 0.912 | 0.669 | 0.838 | 0.843 | 0.885 | 0.772 | 0.387 | 0.382 | 0.674 | 0.324 | 0.324 | 0.892
